Reference: publication PMC12521730, “Quantitative dual-isotope preclinical SPECT/CT imaging and biodistribution of the mercury-197m/g theranostic pair with [^197m/gHg]HgCl2 and a [^197m/gHg]Hg-tetrathiol complex as a platform for radiopharmaceutical development” (EJNMMI Radiopharmacy and Chemistry, 2025)

Test: Ex vivo biodistribution (gamma counter)
Assay type: in vivo, healthy male C57BL/6 mice
Details: Hg-197g, 2 h post administration
Experimental: For animal injection, the tracer was prepared at high molar activity. Radiolabeling of H4Tetrathiol (10^–2 M in DMSO; 40 μL for imaging, 20 μL for bioD) (or DMSO, for [^197m/gHg]HgCl2 mice) with [^197m/gHg]HgCl2 (imaging: 26.7 MBq total m + g, 62 μL; bioD: 13.04 MBq total m + g, 31 μL) was performed in a mixture of ammonium acetate buffer (1 M; pH 7; 198 μL for imaging or 149 μL for bioD) and 6 M NaOH (72 μL or 38 μL required to achieve a pH of 7.5 after addition of activity, for imaging or BioD labeling, respectively). The reaction was allowed to stand for 1 h at 37 °C and quantitative (> 99%) non-isolated percentage radiochemical yield (%RCY) was confirmed via the iTLC methods mentioned above. Further, 100 µL of the reaction was diluted with 50 µL of PBS Tween-20 (0.01 M sodium phosphate, 0.15 M NaCl, 0.05% Tween-20) for imaging mice, or 50 µL of the reaction was diluted with 100 µL of PBS Tween-20 for BioD mice. The tracers were prepared immediately before injection to avoid radiolysis and minimize the tracer loss to any surfaces due to its lipophilicity. The injected doses of each isomer, ^197mHg and ^197gHg, were quantified by measuring an aliquot of known volume of each tracer preparation via HPGe gamma spectroscopy and decay corrected for time of injection using the Eqs. (1) and (2).
The study was conducted in compliance with the guidelines set by the Canadian Council on Animal Care (CCAC) and approved by the Animal Care Committee (ACC) at the University of British Columbia (A20-0132). A total of eight healthy male C57BL/6 mice weighing approximately 30 g for group 1 and 25 g for group 2 were used in the study. The mice were divided into two experimental groups: group 1 (n = 4) received free [^197m/gHg]HgCl2, while group 2 (n = 4) received [^197m/gHg]Hg-Tetrathiol. Within each group, one mouse was allocated for imaging, while the rest were designated for ex vivo biodistribution analysis. For SPECT imaging, the designated mice were anesthetized using isoflurane via a precision vaporizer. […] Once anesthetized, each imaging mouse received an intravenous (IV) injection via the lateral tail vein of 150 μL of [^197m/gHg]HgCl2 (0.492 MBq ^197mHg + 3.171 MBq ^197gHg) or [^197m/gHg]Hg-Tetrathiol (0.899 MBq ^197mHg + 4.230 MBq ^197gHg) in PBS Tween-20 (0.01 M Na Phosphate, 0.15 M NaCl, 0.05% Tween-20).
Mice received an IV injection of [^197m/gHg]HgCl2 (0.275 MBq ^197mHg + 1.758 MBq ^197gHg, 150 μL) or [^197m/gHg]Hg-Tetrathiol (0.384 MBq ^197mHg + 1.733 MBq ^197gHg, 150 μL) (n = 3 per group) via the lateral tail vein using a Tailveiner restrainer. After the injection, the mice were returned to their experimental cages and allowed unrestricted movement. Biodistribution studies were conducted 2 h after administration. Mice were humanely euthanized with an overdose of isoflurane followed by cardiac puncture to collect blood pool activity. The organs of interest were fully extracted, cleaned of blood without rinsing, weighed, and analysed for radioactivity using a calibrated gamma counter with the 55–93 keV energy window for ^197gHg and the 110–160 keV energy window for ^197mHg (Packard Cobra II, Perkin Elmer, Waltham, MA, USA). The stomach and intestines were carefully cleaned prior to analysis to remove residual contents. For tissues and fluids that could not be fully removed (muscle, blood and bone) activity values were extrapolated based on standardised organ weights for age- and sex-matched mice tables to ensure accurate normalization (Davies and Morris [1993]; Foster et al. [2014]). The stomach and whole intestines were cleaned before analysis. The radioactivity measurements were decay corrected for time of injection using the Eqs. (1) and (2). The results are reported as the percentage of the injected activity per gram of tissue (%IA/g) and percentage of the injected activity per tissue (%IA/organ).

In the case of `[Cl][Hg][Cl]` [[^197m/gHg]HgCl2], the “Animal 1 (%IA/Organ): bladder” value is reported as 0.10 %IA/Organ, the “Animal 1 (%IA/Organ): blood” value is reported as 7.19 %IA/Organ and the “Animal 1 (%IA/Organ): bone” value is reported as 4.96 %IA/Organ. For the same compound, the “Animal 1 (%IA/Organ): brain” value was 0.08 %IA/Organ, the “Animal 1 (%IA/Organ): feces” value was 0.04 %IA/Organ and the “Animal 1 (%IA/Organ): heart” value was 0.39 %IA/Organ. For the same compound, the “Animal 1 (%IA/Organ): kidneys” value was 51.84 %IA/Organ, the “Animal 1 (%IA/Organ): large intestine” value was 0.85 %IA/Organ and the “Animal 1 (%IA/Organ): liver” value was 11.53 %IA/Organ. For the same compound, the “Animal 1 (%IA/Organ): lungs” value was 0.87 %IA/Organ, the “Animal 1 (%IA/Organ): muscle” value was 12.34 %IA/Organ and the “Animal 1 (%IA/Organ): pancreas” value was 0.32 %IA/Organ. For the same compound, the “Animal 1 (%IA/Organ): small intestine” value was 0.99 %IA/Organ, the “Animal 1 (%IA/Organ): spleen” value was 0.47 %IA/Organ and the “Animal 1 (%IA/Organ): stomach” value was 0.29 %IA/Organ. The “Animal 1 (%IA/Organ): tail” value was 4.00 %IA/Organ, the “Animal 1 (%IA/Organ): urine” value was 1.57 %IA/Organ and the “Animal 1 (%IA/g) g: bladder” value was 1.28 %IA/g. For the same compound, the “Animal 1 (%IA/g) g: blood” value was 4.25 %IA/g, the “Animal 1 (%IA/g) g: bone” value was 2.26 %IA/g and the “Animal 1 (%IA/g) g: brain” value was 0.19 %IA/g. The “Animal 1 (%IA/g) g: feces” value was 0.96 %IA/g, the “Animal 1 (%IA/g) g: heart” value was 2.62 %IA/g and the “Animal 1 (%IA/g) g: kidneys” value was 110 %IA/g. The “Animal 1 (%IA/g) g: large intestine” value was 3.42 %IA/g, the “Animal 1 (%IA/g) g: lungs” value was 5.68 %IA/g and the “Animal 1 (%IA/g) g: muscle” value was 0.94 %IA/g. The “Animal 1 (%IA/g) g: pancreas” value was 1.76 %IA/g, the “Animal 1 (%IA/g) g: small intestine” value was 4.46 %IA/g and the “Animal 1 (%IA/g) g: spleen” value was 5.78 %IA/g. The “Animal 1 (%IA/g) g: stomach” value was 2.45 %IA/g, the “Animal 1 (%IA/g) g: tail” value was 7.68 %IA/g and the “Animal 1 (%IA/g) g: urine” value was 5.10 %IA/g. For the same compound, the “Animal 2 (%IA/Organ): bladder” value was 0.06 %IA/Organ, the “Animal 2 (%IA/Organ): blood” value was 5.88 %IA/Organ and the “Animal 2 (%IA/Organ): bone” value was 4.05 %IA/Organ. For the same compound, the “Animal 2 (%IA/Organ): brain” value was 0.04 %IA/Organ, the “Animal 2 (%IA/Organ): feces” value was 0.02 %IA/Organ and the “Animal 2 (%IA/Organ): heart” value was 0.21 %IA/Organ. The “Animal 2 (%IA/Organ): kidneys” value was 44.76 %IA/Organ, the “Animal 2 (%IA/Organ): large intestine” value was 0.60 %IA/Organ and the “Animal 2 (%IA/Organ): liver” value was 6.34 %IA/Organ. The “Animal 2 (%IA/Organ): lungs” value was 0.50 %IA/Organ, the “Animal 2 (%IA/Organ): muscle” value was 6.72 %IA/Organ and the “Animal 2 (%IA/Organ): pancreas” value was 0.22 %IA/Organ. For the same compound, the “Animal 2 (%IA/Organ): small intestine” value was 0.66 %IA/Organ, the “Animal 2 (%IA/Organ): spleen” value was 0.25 %IA/Organ and the “Animal 2 (%IA/Organ): stomach” value was 0.18 %IA/Organ. For the same compound, the “Animal 2 (%IA/Organ): tail” value was 2.34 %IA/Organ, the “Animal 2 (%IA/Organ): urine” value was 0.04 %IA/Organ and the “Animal 2 (%IA/g) g: bladder” value was 2.73 %IA/g. The “Animal 2 (%IA/g) g: blood” value was 3.53 %IA/g, the “Animal 2 (%IA/g) g: bone” value was 1.87 %IA/g and the “Animal 2 (%IA/g) g: brain” value was 0.10 %IA/g. The “Animal 2 (%IA/g) g: feces” value was 0.42 %IA/g, the “Animal 2 (%IA/g) g: heart” value was 1.60 %IA/g and the “Animal 2 (%IA/g) g: kidneys” value was 107 %IA/g. The “Animal 2 (%IA/g) g: large intestine” value was 2.61 %IA/g, the “Animal 2 (%IA/g) g: liver” value was 5.13 %IA/g and the “Animal 2 (%IA/g) g: lungs” value was 3.11 %IA/g. For the same compound, the “Animal 2 (%IA/g) g: muscle” value was 0.52 %IA/g, the “Animal 2 (%IA/g) g: pancreas” value was 1.31 %IA/g and the “Animal 2 (%IA/g) g: small intestine” value was 2.72 %IA/g. For the same compound, the “Animal 2 (%IA/g) g: spleen” value was 3.43 %IA/g, the “Animal 2 (%IA/g) g: stomach” value was 1.70 %IA/g and the “Animal 2 (%IA/g) g: tail” value was 4.62 %IA/g. The “Animal 2 (%IA/g) g: urine” value was 3.81 %IA/g, the “Animal 3 (%IA/Organ): bladder” value was 0.03 %IA/Organ and the “Animal 3 (%IA/Organ): blood” value was 5.49 %IA/Organ. The “Animal 3 (%IA/Organ): bone” value was 3.89 %IA/Organ, the “Animal 3 (%IA/Organ): brain” value was 0.05 %IA/Organ and the “Animal 3 (%IA/Organ): feces” value was 0.09 %IA/Organ. For the same compound, the “Animal 3 (%IA/Organ): heart” value was 0.20 %IA/Organ, the “Animal 3 (%IA/Organ): kidneys” value was 46.92 %IA/Organ and the “Animal 3 (%IA/Organ): large intestine” value was 0.43 %IA/Organ. The “Animal 3 (%IA/Organ): liver” value was 6.61 %IA/Organ, the “Animal 3 (%IA/Organ): lungs” value was 0.50 %IA/Organ and the “Animal 3 (%IA/Organ): muscle” value was 6.84 %IA/Organ. For the same compound, the “Animal 3 (%IA/Organ): pancreas” value was 0.25 %IA/Organ, the “Animal 3 (%IA/Organ): small intestine” value was 0.62 %IA/Organ and the “Animal 3 (%IA/Organ): spleen” value was 0.22 %IA/Organ. For the same compound, the “Animal 3 (%IA/Organ): stomach” value was 0.18 %IA/Organ, the “Animal 3 (%IA/Organ): tail” value was 2.23 %IA/Organ and the “Animal 3 (%IA/Organ): urine” value was 0.63 %IA/Organ. For the same compound, the “Animal 3 (%IA/g) g: bladder” value was 1.50 %IA/g, the “Animal 3 (%IA/g) g: blood” value was 3.33 %IA/g and the “Animal 3 (%IA/g) g: bone” value was 1.79 %IA/g. For the same compound, the “Animal 3 (%IA/g) g: brain” value was 0.11 %IA/g, the “Animal 3 (%IA/g) g: feces” value was 2.78 %IA/g and the “Animal 3 (%IA/g) g: heart” value was 1.46 %IA/g. The “Animal 3 (%IA/g) g: kidneys” value was 108 %IA/g, the “Animal 3 (%IA/g) g: large intestine” value was 2.41 %IA/g and the “Animal 3 (%IA/g) g: liver” value was 4.96 %IA/g. For the same compound, the “Animal 3 (%IA/g) g: lungs” value was 3.44 %IA/g, the “Animal 3 (%IA/g) g: muscle” value was 0.53 %IA/g and the “Animal 3 (%IA/g) g: pancreas” value was 1.39 %IA/g. The “Animal 3 (%IA/g) g: small intestine” value was 2.89 %IA/g, the “Animal 3 (%IA/g) g: spleen” value was 2.94 %IA/g and the “Animal 3 (%IA/g) g: stomach” value was 1.57 %IA/g. For the same compound, the “Animal 3 (%IA/g) g: tail” value was 4.40 %IA/g, the “Animal 3 (%IA/g) g: urine” value was 3.90 %IA/g and the “Animal 4 (%IA/Organ): bladder” value was 0.07 %IA/Organ. For the same compound, the “Animal 4 (%IA/Organ): blood” value was 4.67 %IA/Organ, the “Animal 4 (%IA/Organ): bone” value was 3.74 %IA/Organ and the “Animal 4 (%IA/Organ): brain” value was 0.05 %IA/Organ. The “Animal 4 (%IA/Organ): feces” value was 0.07 %IA/Organ, the “Animal 4 (%IA/Organ): heart” value was 0.21 %IA/Organ and the “Animal 4 (%IA/Organ): kidneys” value was 49.72 %IA/Organ. The “Animal 4 (%IA/Organ): large intestine” value was 0.41 %IA/Organ, the “Animal 4 (%IA/Organ): liver” value was 6.62 %IA/Organ and the “Animal 4 (%IA/Organ): lungs” value was 0.46 %IA/Organ. The “Animal 4 (%IA/Organ): muscle” value was 6.43 %IA/Organ, the “Animal 4 (%IA/Organ): pancreas” value was 0.20 %IA/Organ and the “Animal 4 (%IA/Organ): small intestine” value was 0.54 %IA/Organ. The “Animal 4 (%IA/Organ): spleen” value was 0.32 %IA/Organ, the “Animal 4 (%IA/Organ): stomach” value was 0.17 %IA/Organ and the “Animal 4 (%IA/Organ): tail” value was 1.77 %IA/Organ. The “Animal 4 (%IA/Organ): urine” value was 0.38 %IA/Organ, the “Animal 4 (%IA/g) g: bladder” value was 2.90 %IA/g and the “Animal 4 (%IA/g) g: blood” value was 3.00 %IA/g. The “Animal 4 (%IA/g) g: bone” value was 1.85 %IA/g, the “Animal 4 (%IA/g) g: brain” value was 0.12 %IA/g and the “Animal 4 (%IA/g) g: feces” value was 1.01 %IA/g. For the same compound, the “Animal 4 (%IA/g) g: heart” value was 1.49 %IA/g.
